The numbers were not newly measured in PMC8162882 (Chemical Science, 2020), which cites them from elsewhere.

For the series the following is noted: as toxic as the natural product.

As to amaninamide, the “Toxicity relative to the natural product (6′-OH replaced by H)” value is 25–50%.

Consider amanin, for which the “Toxicity relative to the natural product (6′-OH replaced by H)” value is 25–50%.
